What was measured:
[1] = molecular target: Receptor-interacting serine/threonine-protein kinase 2 (Homo sapiens, UniProt O43353); test: Selectivity interaction (NanoBRET assay (HEK293T cells)) EUB0000229b RIPK2; assay type: cell-based, HEK-293T
[2] = molecular target: T1, Mitogen-activated protein kinase kinase kinase kinase 2 (Homo sapiens) (UniProt Q12851); test: Selectivity interaction (KinomeScan (DiscoverX)) EUB0001079a MAP4K2; details: at 1 µM
T1 sequence (whole entry): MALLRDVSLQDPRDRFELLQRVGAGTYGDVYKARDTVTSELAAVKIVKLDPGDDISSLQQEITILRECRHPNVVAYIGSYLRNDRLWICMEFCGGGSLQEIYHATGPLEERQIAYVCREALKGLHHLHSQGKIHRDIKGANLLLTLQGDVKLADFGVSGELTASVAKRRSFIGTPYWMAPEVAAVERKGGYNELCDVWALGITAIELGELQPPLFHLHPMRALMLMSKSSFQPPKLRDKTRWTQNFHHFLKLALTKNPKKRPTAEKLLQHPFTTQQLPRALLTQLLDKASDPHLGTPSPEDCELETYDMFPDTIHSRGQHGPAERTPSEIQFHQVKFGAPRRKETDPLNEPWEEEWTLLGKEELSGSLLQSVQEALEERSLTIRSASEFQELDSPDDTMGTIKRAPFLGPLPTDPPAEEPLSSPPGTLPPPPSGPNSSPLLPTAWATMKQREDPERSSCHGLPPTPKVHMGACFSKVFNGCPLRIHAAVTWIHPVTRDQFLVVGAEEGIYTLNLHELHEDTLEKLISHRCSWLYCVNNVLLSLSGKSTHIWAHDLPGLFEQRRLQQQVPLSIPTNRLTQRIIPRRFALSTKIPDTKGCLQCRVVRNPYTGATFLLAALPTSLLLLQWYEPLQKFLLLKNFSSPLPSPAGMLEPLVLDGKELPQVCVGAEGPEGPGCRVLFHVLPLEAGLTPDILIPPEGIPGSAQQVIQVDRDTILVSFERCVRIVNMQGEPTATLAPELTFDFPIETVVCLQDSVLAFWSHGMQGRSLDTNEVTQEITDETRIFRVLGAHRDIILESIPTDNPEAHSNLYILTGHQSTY

[3] = molecular target: T2, Tyrosine-protein kinase ZAP-70 (Homo sapiens) (UniProt P43403); test: Selectivity interaction (KinomeScan (DiscoverX)) EUB0001079a ZAP70; details: at 1 µM
T2 sequence (whole entry): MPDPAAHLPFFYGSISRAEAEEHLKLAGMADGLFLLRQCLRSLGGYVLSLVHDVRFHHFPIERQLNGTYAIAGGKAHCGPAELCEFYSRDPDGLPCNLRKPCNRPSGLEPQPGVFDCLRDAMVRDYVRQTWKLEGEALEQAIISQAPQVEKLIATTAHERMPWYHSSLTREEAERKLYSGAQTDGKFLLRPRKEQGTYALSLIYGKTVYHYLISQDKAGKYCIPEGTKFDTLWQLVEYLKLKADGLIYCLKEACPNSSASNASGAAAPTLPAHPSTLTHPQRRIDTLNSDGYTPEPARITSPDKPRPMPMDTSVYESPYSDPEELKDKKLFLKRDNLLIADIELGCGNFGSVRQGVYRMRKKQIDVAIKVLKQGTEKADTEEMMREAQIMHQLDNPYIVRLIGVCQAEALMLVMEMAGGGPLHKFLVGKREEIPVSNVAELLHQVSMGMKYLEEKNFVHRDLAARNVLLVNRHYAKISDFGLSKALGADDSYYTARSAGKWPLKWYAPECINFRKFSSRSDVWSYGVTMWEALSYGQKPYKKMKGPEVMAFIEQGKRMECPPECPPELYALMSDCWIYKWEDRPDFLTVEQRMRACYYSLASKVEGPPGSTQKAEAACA

[4] = molecular target: Death-associated protein kinase 1 (Homo sapiens, UniProt P53355); test: Selectivity interaction (Kinase panel (DSF assay)) EUB0001558a DAPK1
[5] = molecular target: Calcium/calmodulin-dependent protein kinase type 1D (Homo sapiens) (UniProt Q8IU85); test: Selectivity interaction (ActivX KiNativ screen (kinase selectivity in THP-1 cell lysates)) EUB0000639a CAMK1D; assay type: subcellular; details: lysate, at 5 µM
[6] = molecular target: Cyclin-dependent kinase 5 (Homo sapiens, UniProt Q00535); test: Selectivity interaction (ActivX KiNativ screen (kinase selectivity in THP-1 cell lysates)) EUB0000639a CDK5; assay type: subcellular; details: lysate, at 1 µM
Chain of Cyclin-dependent kinase 5 (Q00535 whole entry, looked up): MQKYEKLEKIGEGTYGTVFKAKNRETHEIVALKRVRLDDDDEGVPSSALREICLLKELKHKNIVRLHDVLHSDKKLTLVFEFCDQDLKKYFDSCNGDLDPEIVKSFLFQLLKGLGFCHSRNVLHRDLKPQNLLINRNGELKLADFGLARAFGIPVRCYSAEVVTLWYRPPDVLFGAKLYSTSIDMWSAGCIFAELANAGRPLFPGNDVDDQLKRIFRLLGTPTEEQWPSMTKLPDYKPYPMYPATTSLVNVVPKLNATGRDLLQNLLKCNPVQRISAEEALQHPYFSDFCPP

[7] = molecular target: T3, Mitogen-activated protein kinase 12 (Homo sapiens) (UniProt P53778); test: Selectivity interaction (KinomeScan (DiscoverX)) EUB0000595a MAPK12; details: at 10 µM
T3 sequence (whole entry): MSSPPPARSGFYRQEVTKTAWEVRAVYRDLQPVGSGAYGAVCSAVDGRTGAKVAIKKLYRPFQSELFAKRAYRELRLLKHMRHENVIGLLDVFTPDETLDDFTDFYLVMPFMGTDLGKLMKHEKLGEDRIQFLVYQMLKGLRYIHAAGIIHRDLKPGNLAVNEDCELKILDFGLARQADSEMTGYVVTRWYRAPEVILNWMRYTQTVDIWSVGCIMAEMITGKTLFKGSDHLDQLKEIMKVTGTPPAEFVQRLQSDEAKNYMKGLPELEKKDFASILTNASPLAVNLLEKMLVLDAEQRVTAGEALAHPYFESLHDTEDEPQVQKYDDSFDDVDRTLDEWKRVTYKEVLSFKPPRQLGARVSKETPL

[8] = system: Phosphatidylinositol 4,5-bisphosphate 3-kinase catalytic subunit alpha isoform (Homo sapiens), P42336 [E545A]; test: (§1) Selectivity interaction (KinomeScan (DiscoverX)) EUB0001619a PIK3CA; details: at 1 µM
[9] = system: Phosphatidylinositol 4,5-bisphosphate 3-kinase catalytic subunit alpha isoform (Homo sapiens), P42336 [E542K]; test: as §1; details: at 1 µM
[10] = system: Phosphatidylinositol 4,5-bisphosphate 3-kinase catalytic subunit alpha isoform (Homo sapiens), P42336 [Q546K]; test: as §1; details: at 1 µM
[11] = molecular target: Phosphatidylinositol 4,5-bisphosphate 3-kinase catalytic subunit alpha isoform (Homo sapiens) (UniProt P42336); test: as §1; details: at 1 µM
Chain of Phosphatidylinositol 4,5-bisphosphate 3-kinase catalytic subunit alpha isoform (Homo sapiens) (P42336 whole entry, canonical isoform): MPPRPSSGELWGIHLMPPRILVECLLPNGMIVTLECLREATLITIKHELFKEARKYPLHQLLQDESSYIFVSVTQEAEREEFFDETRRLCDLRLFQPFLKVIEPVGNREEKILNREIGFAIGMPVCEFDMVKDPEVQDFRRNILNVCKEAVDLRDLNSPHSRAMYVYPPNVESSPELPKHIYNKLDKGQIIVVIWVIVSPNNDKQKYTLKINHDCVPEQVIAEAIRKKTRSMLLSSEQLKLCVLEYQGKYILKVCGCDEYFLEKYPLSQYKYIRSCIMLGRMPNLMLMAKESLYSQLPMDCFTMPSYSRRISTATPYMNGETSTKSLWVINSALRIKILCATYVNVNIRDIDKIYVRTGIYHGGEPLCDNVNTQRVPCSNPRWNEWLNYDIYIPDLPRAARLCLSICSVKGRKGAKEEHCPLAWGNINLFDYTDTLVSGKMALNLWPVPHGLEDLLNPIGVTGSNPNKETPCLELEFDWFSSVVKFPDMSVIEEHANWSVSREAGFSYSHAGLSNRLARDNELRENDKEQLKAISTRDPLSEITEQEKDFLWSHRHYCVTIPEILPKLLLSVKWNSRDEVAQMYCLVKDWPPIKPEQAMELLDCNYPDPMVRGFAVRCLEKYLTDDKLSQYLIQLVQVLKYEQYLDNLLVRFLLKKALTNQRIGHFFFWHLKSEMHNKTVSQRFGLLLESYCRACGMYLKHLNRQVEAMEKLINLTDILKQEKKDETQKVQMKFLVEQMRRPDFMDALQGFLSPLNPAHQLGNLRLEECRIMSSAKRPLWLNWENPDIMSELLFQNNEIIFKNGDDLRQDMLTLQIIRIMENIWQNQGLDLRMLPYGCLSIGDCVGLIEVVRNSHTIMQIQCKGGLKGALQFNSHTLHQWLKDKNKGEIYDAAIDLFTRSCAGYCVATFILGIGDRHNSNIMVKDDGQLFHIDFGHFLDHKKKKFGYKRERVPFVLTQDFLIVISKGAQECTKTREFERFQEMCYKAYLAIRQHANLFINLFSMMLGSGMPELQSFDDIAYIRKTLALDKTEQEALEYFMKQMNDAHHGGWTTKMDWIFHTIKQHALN

[12] = system: Phosphatidylinositol 4,5-bisphosphate 3-kinase catalytic subunit alpha isoform (Homo sapiens), P42336 [H1047Y]; test: as §1; details: at 1 µM
Chain of Phosphatidylinositol 4,5-bisphosphate 3-kinase catalytic subunit alpha isoform (Homo sapiens), P42336 [H1047Y] (P42336 whole entry H1047Y, canonical isoform): as the sequence (P42336 whole entry, canonical isoform) above, with H1047Y counted along it

[13] = system: Phosphatidylinositol 4,5-bisphosphate 3-kinase catalytic subunit alpha isoform (Homo sapiens), P42336 [C420R]; test: as §1; details: at 1 µM
Chain of Phosphatidylinositol 4,5-bisphosphate 3-kinase catalytic subunit alpha isoform (Homo sapiens), P42336 [C420R] (P42336 whole entry C420R, canonical isoform): as the sequence (P42336 whole entry, canonical isoform) above, with C420R counted along it

[14] = system: Phosphatidylinositol 4,5-bisphosphate 3-kinase catalytic subunit alpha isoform (Homo sapiens), P42336 [H1047L]; test: as §1; details: at 1 µM
[15] = system: Phosphatidylinositol 4,5-bisphosphate 3-kinase catalytic subunit alpha isoform (Homo sapiens), P42336 [E545K]; test: as §1; details: at 1 µM
[16] = system: Phosphatidylinositol 4,5-bisphosphate 3-kinase catalytic subunit alpha isoform (Homo sapiens), P42336 [I800L]; test: as §1; details: at 1 µM
[17] = system: Phosphatidylinositol 4,5-bisphosphate 3-kinase catalytic subunit alpha isoform (Homo sapiens), P42336 [M1043I]; test: as §1; details: at 1 µM
[18] = molecular target: Serine/threonine-protein kinase/endoribonuclease IRE1 (Homo sapiens) (UniProt O75460); test: Selectivity interaction (KinomeScan (DiscoverX)) EUB0001619a ERN1; details: at 1 µM
Chain of Serine/threonine-protein kinase/endoribonuclease IRE1 (Homo sapiens) (O75460 19-977 limits assumed): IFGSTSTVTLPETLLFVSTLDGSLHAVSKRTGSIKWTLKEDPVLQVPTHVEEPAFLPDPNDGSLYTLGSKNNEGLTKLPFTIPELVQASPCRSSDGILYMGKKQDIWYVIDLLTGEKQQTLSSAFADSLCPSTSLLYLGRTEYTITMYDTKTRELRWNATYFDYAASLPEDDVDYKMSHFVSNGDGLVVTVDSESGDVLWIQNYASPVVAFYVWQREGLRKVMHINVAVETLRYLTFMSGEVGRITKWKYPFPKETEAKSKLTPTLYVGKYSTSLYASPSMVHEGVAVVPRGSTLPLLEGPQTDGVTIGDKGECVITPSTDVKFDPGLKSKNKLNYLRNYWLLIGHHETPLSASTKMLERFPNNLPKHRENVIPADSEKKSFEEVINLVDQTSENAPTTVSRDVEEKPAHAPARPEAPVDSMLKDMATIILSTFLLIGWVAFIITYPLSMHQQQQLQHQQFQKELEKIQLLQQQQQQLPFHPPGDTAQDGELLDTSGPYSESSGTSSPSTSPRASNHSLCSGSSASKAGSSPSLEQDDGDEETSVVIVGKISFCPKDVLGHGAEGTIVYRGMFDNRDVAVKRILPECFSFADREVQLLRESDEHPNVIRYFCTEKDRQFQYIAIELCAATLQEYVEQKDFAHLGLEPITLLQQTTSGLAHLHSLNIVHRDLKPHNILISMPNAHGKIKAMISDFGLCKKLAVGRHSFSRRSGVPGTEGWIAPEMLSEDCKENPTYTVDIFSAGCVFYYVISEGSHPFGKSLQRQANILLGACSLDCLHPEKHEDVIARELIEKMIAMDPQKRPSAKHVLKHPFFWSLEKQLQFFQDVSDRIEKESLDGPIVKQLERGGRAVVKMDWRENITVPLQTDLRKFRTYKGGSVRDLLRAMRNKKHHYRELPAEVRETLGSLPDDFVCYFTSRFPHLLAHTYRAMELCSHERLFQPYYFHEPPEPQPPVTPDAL

KCNQ1 = KCNQ1 (Homo sapiens, UniProt P51787); test: Selectivity interaction (Panel of kinases, GPCRs, ion channels and transporters (enzymatic assay)) EUB0000266bCl KCNQ1

Chain of Receptor-interacting serine/threonine-protein kinase 2 (O43353 whole entry): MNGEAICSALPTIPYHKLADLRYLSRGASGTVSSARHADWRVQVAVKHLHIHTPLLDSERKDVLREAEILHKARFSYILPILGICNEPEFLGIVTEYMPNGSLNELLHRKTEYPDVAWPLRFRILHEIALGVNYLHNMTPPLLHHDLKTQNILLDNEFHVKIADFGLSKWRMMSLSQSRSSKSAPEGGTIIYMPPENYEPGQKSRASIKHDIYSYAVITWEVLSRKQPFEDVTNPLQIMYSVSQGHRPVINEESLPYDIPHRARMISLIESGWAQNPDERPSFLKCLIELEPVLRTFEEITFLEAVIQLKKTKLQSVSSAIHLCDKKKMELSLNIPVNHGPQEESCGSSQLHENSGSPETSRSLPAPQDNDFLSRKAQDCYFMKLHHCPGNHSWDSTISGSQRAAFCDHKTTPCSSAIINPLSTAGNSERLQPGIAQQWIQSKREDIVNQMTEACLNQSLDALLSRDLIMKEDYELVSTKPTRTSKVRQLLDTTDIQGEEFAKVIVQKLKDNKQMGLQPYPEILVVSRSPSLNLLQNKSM

## COc1cc(N(C)c2ccnc3ccc(C(F)(F)F)cc23)cc(OC)c1OC
[1]
  IC50: > 10 µM

## Nc1cnc(N2CCc3cc(S(=O)(=O)Nc4c(F)cc(Cl)cc4F)cc(N4CCCC4=O)c32)nc1 [TP-020n]
[2]
  % of control: 90%
[3]
  % of control: 85%

## CC(C)(O)[C@H](F)CN1Cc2cc(NC(=O)c3cnn4cccnc34)c(N3CCOCC3)cc2C1=O
[4]
  dTM: 0.1 K

## CC[C@@H]1[C@H](F)C(=O)N[C@@H]1COc1nccc2cc(C(N)=O)c(OC)cc12 [ZIMLOVISERTIB]
[5]
  % of inhibition: 21.3%
[6]
  % of inhibition: -3.5%

## COCC(=O)NC/C=C/c1ccc2ncnc(Nc3ccc(Oc4ccc(C)nc4)c(C)c3)c2c1 [CP-724714]
[7]
  % of control: 100%

## N#Cc1cccc(-c2c[nH]c3ncnc(N4CCOCC4)c23)c1
[8]
  % of control: 100%
[9]
  % of control: 90%
[10]
  % of control: 97%
[11]
  % of control: 100%
[12]
  % of control: 76%
[13]
  % of control: 95%
[14]
  % of control: 90%
[15]
  % of control: 96%
[16]
  % of control: 88%
[17]
  % of control: 100%
[18]
  % of control: 74%

## CCn1c(-c2nc3cc(C(=O)N4CCCC(N)C4)ccc3n2C)cc2ccccc21 (centres undefined)
KCNQ1
  XC50: > 25.1 µM

— ChEMBL document CHEMBL5465560, “Selectivity Literature for EUbOPEN Chemogenomic Library” (2024)
